Data set [1] relates to MX-1 Human Mammary Xenograft. The experiment in a line: MX-1 Human Mammary Xenograft (Tumor Regression). It counts as in vivo, Murine. An excerpt:
(§1) Experimental Anticancer Activity of Dolastatin 10 in
(§2) Murine in vivo Systems, T/C (μg/kg)
(§3) T/C - 100 = % life extension.
In general terms: In xenograft studies the graft and the host belong to different species.

Data set [2] relates to OVCAR-3 Human Ovary Xenograph. The experiment in a line: OVCAR-3 Human Ovary Xenograph Nude Mouse. It counts as in vivo. As to conditions: 40 μg/kg; time of survival.
Excerpt: as §1, §2, §3

For a further data set, the system named is B16 Melanoma. The experiment in a line: Murine in vivo system, B16 Melanoma. The settings on record: 11.11 μg/kg.
Excerpt: as §1, §2, §3

For data set [3], the system named is P388 Lymphocytic Leukemia. Put plainly: Murine in vivo system, P388 Lymphocytic Leukemia.
Excerpt: (§4) T/C = Test Control, both bearing tumor, expressed in time of survival.
as §3

The subject of the next data set is Human Mammary Xenograph. Put plainly: Human Mammary Xenograph Nude Mouse. As to conditions: 26 μg/kg.
Excerpt: as §4, §3

In data set [4] the test system is LOX Human Melanoma Xenograph. The experiment in a line: LOX Human Melanoma Xenograph (Nude Mouse).
Excerpt: as §4, §3

In data set [5] the test system is L1210 Lymphocytic Leukemia. The experiment in a line: Murine in vivo system, L1210 Lymphocytic Leukemia. As to conditions: 1.63 μg/kg; time of survival.
Excerpt: as §1, §2, §3

In the next data set the test system is A498. Put plainly: NCI in vitro mini panel, Renal A498. As to conditions: 48 hrs. It counts as cell-based, Human. As for the experimental part: (§5) ED50 (P388) and GI50 (HTCL) identify the drug dose which reduces the percent tumor/cell growth to 50%. There is no mathematical difference between ED50 and GI50, both of which are calculated using the same formula. The only difference is historical usage.
(§6) TGI, means "Total Growth Inhibition", and identifies the drug dose needed to yield zero percent growth, i.e. there are just as many cells at the end of the experiment as were present at the beginning. Whether just as many cells were killed as were produced (steady state), or no growth occurred (total inhibition) cannot be distinguished.
(§7) LC50, means "Lethal Concentration 50%", and identifies the drug concentration which reduces to one-half of the cells originally present at the beginning of the experiment.
(§8) Each drug is tested at five (5) doses: 100-10-1-0.1-0.01--μg/mL. Percent Growths are calculated for each dose. The two (or three) doses with growth values above, below, (or near to) 50% growth are used to calculate the ED50 /GI50 values using a linear regression computation. If no dose yields a growth value under 50%, the results are expressed as: ED50 >(highest dose). If no dose yields growth higher than 50% growth, then ED50 <(lowest dose). Similar calculations are performed for the TGI at 0% growth, and at -50% growth for the LC50.
(§9) At the start of each experiment, cells from the in vitro cell cultures are inoculated into the appropriate tubes or microtiter plates. One set of control tubes/plates is immediately counted to determine the number of cells at the start of the experiment. This is the "baseline count", or "Tzero reading". At the end of the experiment (48 hrs later), a second set of control tubes/plates is analyzed to determine the "Control Growth" value. The growth (or death) of cells relative to the initial quantity of cells is used to define the "Percent of Growth."
(§10) For each of six cell lines, GI50, TGI, and LC50 amounts were also calculated for each of the compounds. Each compound was also tested against the PS-388 cell line and for this test an ED50 was calculated.
(§11) The protocols followed, for the NCI minipanel are, except for the number of cell lines, those established by M. R. Boyd Ph.D., and well known to those of ordinary skill in the art. The procedure followed for the test against PS-388 Leukemia is the same that was followed in the superseded NCI P-388 screening test, which is also well known to those having ordinary skill in the art.

A further data set relates to SK-MEL-5. Put plainly: NCI in vitro mini panel, Melanoma SK-MEL-5. It counts as cell-based, Human. The settings on record: 48 hrs. How it is done:
as §5, §6, §7, §8, §9, §10, §11

The next data set has as its system KM20L2. The experiment in a line: NCI in vitro mini panel, Colon KM20L2. It counts as cell-based, Human. As to conditions: 48 hrs. As for the experimental part:
as §5, §6, §7, §8, §9, §10, §11

The next data set concerns OVCAR-3. Put plainly: NCI in vitro mini panel, Ovarian OVCAR-3. It counts as cell-based, Human. The settings on record: 48 hrs. How it is done: as §5, §6, §7, §8, §9, §10, §11
In another data set the test system is PS-388. The experiment in a line: PS-388 Mouse Leukemia cell line test. The class given is cell-based. The settings on record: Mouse Leukemia PS-388. As for the experimental part: as §5, §8, §9, §10, §11
The next data set deals with NCI-H460. Put plainly: NCI in vitro mini panel, Lung-NSC NCI-H460. It counts as cell-based, Human. As to conditions: 48 hrs. How it is done: as §5, §6, §7, §8, §9, §10, §11
In the next data set the test system is SF-295. The experiment in a line: NCI in vitro mini panel, CNS SF-295. It counts as cell-based, Human. As to conditions: 48 hrs. As for the experimental part:
as §5, §6, §7, §8, §9, §10, §11

As for Dolastatin 10, the “T/C (Tumor Regression)” value in data set [1] (6.25 μg/kg) is 69; in data set [1] (13 μg/kg), 61; in data set [1] (26 μg/kg), 50; in [1] (52 μg/kg) it was 14. The T/C is on record as 300 in [2]; “toxic” in [3] (13.0 μg/kg); “Toxic” in the data set with Human Mammary Xenograph; 170 in data set [4] (3.25 μg/kg, time of survival); “toxic” in data set [4] (52 μg/kg); 340 in data set [4] (Lox in separate experiments, 43 μg/kg, time of survival). Moreover, in [5], the T/C is listed as 120. Also, the cures with B16 Melanoma came to 40%; in data set [3] (3.25 μg/kg) it was 17%; in data set [3] (6.5 μg/kg), 17%; in data set [4] (3.25 μg/kg) it was 17%; in data set [4] (6.5 μg/kg), 33%; in [4] (13 μg/kg), 50%. Further, the cures in [4] (26 μg/kg) stood at 67%.
A word on the TGI: it is the concentration giving total growth inhibition. A lower TGI goes with more potent growth arrest. As for Dov-ile-Dil-Dap-Met-OMe [Compound 14], the GI-50 in the data set on A498 was 0.00027 µg/mL; with SK-MEL-5, 0.000044 µg/mL; in the data set with KM20L2 it was 0.000034 µg/mL; in the data set with OVCAR-3 it was 0.000067 µg/mL; with NCI-H460, 0.00012 µg/mL; in the data set with SF-295 it was 0.00025 µg/mL. The LC-50 with A498, in the data set with SK-MEL-5, in the data set on KM20L2, in the data set with OVCAR-3, with NCI-H460 and in the data set on SF-295 was > 1 µg/mL throughout. Besides, the TGI with A498 was 35 ng/mL; in the data set on SK-MEL-5, 22 ng/mL; in the data set on KM20L2, 1.3 ng/mL; in the data set with OVCAR-3, 0.67 ng/mL; with NCI-H460, 0.13 ng/mL; in the data set on SF-295 it was > 1000 ng/mL. The substance also showed an ED-50 with PS-388 of 0.00032 µg/mL.
For the substance “Dov-Val-Dil-Dap Pentyl ester [Compound 16a]”, the GI-50 with A498 is < 0.0001 µg/mL; with SK-MEL-5 it was 0.00066 µg/mL; in the data set on OVCAR-3 it was 0.00052 µg/mL; in the data set with NCI-H460, 0.00034 µg/mL. The LC-50 with A498, in the data set on SK-MEL-5, with KM20L2, in the data set with OVCAR-3, in the data set with NCI-H460 and with SF-295 was > 1 µg/mL each time. Besides, the concentration for total growth inhibition (TGI) was 180 ng/mL in the data set on A498; 31 ng/mL in the data set on SK-MEL-5; 13 ng/mL with KM20L2; 1.1 ng/mL in the data set on OVCAR-3; 1.1 ng/mL with NCI-H460; 21 ng/mL in the data set with SF-295. Also, the ED-50 with PS-388 was 0.021 µg/mL.
With “Dov-Val-Dil-Dap Octyl ester [Compound 16b]”, the GI-50 was 0.025 µg/mL in the data set with A498; 0.0027 µg/mL with SK-MEL-5; 0.0017 µg/mL in the data set on KM20L2; 0.0031 µg/mL with OVCAR-3; 0.0042 µg/mL in the data set on NCI-H460; 0.0054 µg/mL with SF-295. The LC-50 in the data set on A498, with SK-MEL-5, in the data set on KM20L2, with OVCAR-3, in the data set on NCI-H460 and with SF-295 was > 1 µg/mL in each case. In addition, the total growth inhibition concentration (TGI) in the data set on A498 is 550 ng/mL; in the data set with SK-MEL-5 it was > 1000 ng/mL; in the data set with KM20L2, 130 ng/mL; in the data set with OVCAR-3, 40 ng/mL; in the data set with NCI-H460, 58 ng/mL; in the data set with SF-295 it was > 1000 ng/mL. The substance further came in with an ED-50 in the data set with PS-388 of 0.029 µg/mL.
With “Dov-Val-Dil-Dap hexylamide [Compound 16c]”, the GI-50 in the data set with A498 is 0.0019 µg/mL; with SK-MEL-5, 0.00058 µg/mL; in the data set with KM20L2, 0.00092 µg/mL; with OVCAR-3, 0.0005 µg/mL; with NCI-H460, 0.00071 µg/mL; with SF-295 it was 0.0011 µg/mL. In addition, the LC-50 in the data set with A498, with SK-MEL-5, in the data set with KM20L2, in the data set with OVCAR-3, in the data set with NCI-H460 and in the data set on SF-295 was > 0.01 µg/mL in each case. In addition, the TGI is > 10 ng/mL with A498; > 10 ng/mL in the data set on SK-MEL-5; 6.6 ng/mL in the data set on KM20L2; 3.9 ng/mL with OVCAR-3; 5.1 ng/mL in the data set with NCI-H460; > 10 ng/mL with SF-295. Besides, in the data set with PS-388, the ED-50 came to 0.00227 µg/mL.
With Dov-Ie-Dil-Dap-Doe [Compound 12], the GI-50 in the data set on A498 stood at 0.000000058 µg/mL; in the data set with SK-MEL-5, 0.0000000048 µg/mL; in the data set on KM20L2, 0.0000000072 µg/mL; with OVCAR-3 it was 0.0000000091 µg/mL; in the data set on NCI-H460, 0.0000000058 µg/mL; in the data set with SF-295, 0.000000025 µg/mL. Besides, the LC-50 in the data set on A498, in the data set on SK-MEL-5, in the data set on KM20L2, in the data set with OVCAR-3, in the data set with NCI-H460 and with SF-295 was > 1 µg/mL in each case. For the same substance, the TGI with A498 turned out to be 17 ng/mL; in the data set on SK-MEL-5 it was 0.00015 ng/mL; in the data set with KM20L2, 0.0001 ng/mL; in the data set on OVCAR-3, 6e-05 ng/mL; with NCI-H460 it was 6.5e-05 ng/mL; with SF-295 it was 0.00025 ng/mL. Further, in the data set on PS-388, the ED-50 was 0.0000248 µg/mL.

Values taken from patent publication US5521284A, “Human cancer inhibitory pentapeptide amides and esters” (priority 1994, dated 1996).
